From the supplement of paper PMC10307832

Assays:
Experiment in all cases: relative viability (nuclei count vs DMSO), 5 days (fraction); higher = more cells survive
R406 + Lapatinib = compound: COc1cc(Nc2ncc(F)c(Nc3ccc4c(n3)NC(=O)C(C)(C)O4)n2)cc(OC)c1OC [R406] + CS(=O)(=O)CCNCc1ccc(-c2ccc3ncnc(Nc4ccc(OCc5cccc(F)c5)c(Cl)c4)c3c2)o1 [Lapatinib] (partner 2 µM)
Summary of the method: (§1)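 Lung cancer cell lines were pin-tool dosed in 1536-well plates on the day after seeding, with either a lone drug or a fixed anchor-drug dose plus five library-drug doses (not always all listed) in √10 steps. Nuclei were counted on 4× images after 5 days. Relative viability is the ratio of treated-well to vehicle-well nuclei counts, with each value a median of duplicate plates.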

Daporinad + Alpelisib = compound: O=C(/C=C/c1cccnc1)NCCCCC1CCN(C(=O)c2ccccc2)CC1 [Daporinad] + Cc1nc(NC(=O)N2CCC[C@H]2C(N)=O)sc1-c1ccnc(C(C)(C)C(F)(F)F)c1 [Alpelisib] (partner 2 µM)
Summary of the method: as §1

R406 + Pictilisib = compound: COc1cc(Nc2ncc(F)c(Nc3ccc4c(n3)NC(=O)C(C)(C)O4)n2)cc(OC)c1OC [R406] + CS(=O)(=O)N1CCN(Cc2cc3nc(-c4cccc5[nH]ncc45)nc(N4CCOCC4)c3s2)CC1 [Pictilisib] (partner 1 µM)
Summary of the method: as §1

Daporinad + Lapatinib = compound: O=C(/C=C/c1cccnc1)NCCCCC1CCN(C(=O)c2ccccc2)CC1 [Daporinad] + CS(=O)(=O)CCNCc1ccc(-c2ccc3ncnc(Nc4ccc(OCc5cccc(F)c5)c(Cl)c4)c3c2)o1 [Lapatinib] (partner 2 µM)
Summary of the method: as §1

| Cell Line | relative viability (R406 + Lapatinib; first compound 0.08 µM) | relative viability (R406 + Lapatinib; first compound 0.253 µM) | relative viability (R406 + Lapatinib; first compound 0.8 µM) | relative viability (R406 + Lapatinib; first compound 2.53 µM) | relative viability (R406 + Lapatinib; first compound 8 µM) | relative viability (Daporinad + Alpelisib; first compound 0.0005 µM) | relative viability (Daporinad + Alpelisib; first compound 0.001581 µM) | relative viability (Daporinad + Alpelisib; first compound 0.005 µM) | relative viability (Daporinad + Alpelisib; first compound 0.01581 µM) | relative viability (R406 + Pictilisib; first compound 0.08 µM) | relative viability (R406 + Pictilisib; first compound 0.253 µM) | relative viability (R406 + Pictilisib; first compound 0.8 µM) | relative viability (R406 + Pictilisib; first compound 2.53 µM) | relative viability (R406 + Pictilisib; first compound 8 µM) | relative viability (Daporinad + Lapatinib; first compound 0.0005 µM) | relative viability (Daporinad + Lapatinib; first compound 0.001581 µM) | relative viability (Daporinad + Lapatinib; first compound 0.005 µM) | relative viability (Daporinad + Lapatinib; first compound 0.01581 µM) |
| --- | --- | --- | --- | --- | --- | --- | --- | --- | --- | --- | --- | --- | --- | --- | --- | --- | --- | --- |
| NCI-H1993 | 0.882 | 0.964 | 0.829 | 0.43 | 0.646 | 0.696 | 0.67 | 0.685 | 0.688 | 0.769 | 0.814 | 0.862 | 0.604 | 0.928 | 0.78 | 0.811 | 0.977 | 0.793 |
| SK-LU-1 | 0.875 | 0.93 | 1.09 | 0.491 | 0.303 | 0.933 | 1.22 | 1.47 | 1.06 | 0.46 | 0.658 | 0.546 | 0.277 | 0.173 | 0.889 | 0.907 | 1.09 | 0.969 |
| NCI-H23 | 1.12 | 1.54 | 1.28 | 0.589 | 0.593 | 0.69 | 0.776 | 0.782 | 0.416 | 0.521 | 0.543 | 0.695 | 0.165 | 0.328 | 1.17 | 0.987 | 0.94 | 0.41 |
| HCC-366 | 0.908 | 1.15 | 1.17 | – | 0.356 | 0.44 | 0.503 | 0.542 | 0.616 | 0.128 | 0.163 | 0.141 | 0.113 | 0.122 | 1.06 | 1.02 | 1.08 | 1.02 |
| EMC-BAC-2 | 0.888 | 0.963 | 0.93 | 0.921 | 0.806 | 0.822 | 0.773 | 0.544 | 0.223 | 0.566 | 0.58 | 0.585 | 0.502 | 0.323 | 0.93 | 0.885 | 0.846 | 0.336 |
| NCI-H2405 | 0.98 | 1.14 | 1.13 | 0.269 | 0.234 | 0.918 | 0.939 | 0.928 | 0.466 | 0.514 | 0.475 | 0.396 | 0.265 | 0.175 | 1.1 | 1.25 | 1.12 | 0.444 |
| NCI-H1944 | 0.756 | 0.862 | 0.855 | 0.559 | 0.614 | 0.892 | 0.907 | 0.822 | 0.844 | 0.316 | 0.344 | 0.348 | 0.265 | 0.279 | 0.849 | 0.875 | 0.802 | 0.804 |
| NCI-H358 | 0.407 | 0.441 | 0.47 | 0.375 | 0.2 | 0.833 | 0.984 | 0.887 | 0.834 | 0.336 | 0.323 | 0.319 | 0.272 | 0.228 | 0.359 | 0.634 | 0.533 | 0.451 |
| EPLC-272H | 0.888 | 0.924 | 1.1 | 0.442 | 0.228 | 0.942 | 1.02 | 0.84 | 1.08 | 0.293 | 0.326 | 0.328 | 0.156 | 0.119 | 0.772 | 1.18 | 0.936 | 1.29 |
| EBC-1 | 0.22 | 0.226 | 0.216 | 0.233 | 0.197 | 0.761 | 0.901 | 0.935 | 0.859 | 0.462 | 0.371 | 0.528 | 0.26 | 0.162 | 0.238 | 0.216 | 0.206 | 0.17 |
| NCI-H1915 | 0.991 | 1.09 | 1.03 | 0.806 | 0.778 | 1.04 | 1.09 | 1.14 | 1.11 | 0.942 | 1.03 | 0.972 | 0.364 | 0.74 | 0.983 | 1.03 | 1.03 | 0.969 |
| NCI-H647 | 0.84 | 1.17 | 1.78 | 0.0824 | 0.157 | 1.2 | 1.07 | 1.19 | 1.05 | 0.437 | 0.402 | 0.418 | 0.276 | 0.147 | 1.13 | 1.34 | 1.19 | 1.01 |
| NCI-H322M | 0.543 | 0.51 | 0.647 | 0.335 | 0.343 | 0.757 | 0.945 | 0.85 | 0.769 | 0.519 | 0.484 | 0.57 | 0.235 | 0.333 | 0.648 | 0.671 | 0.584 | 0.597 |
| NCI-H1299 | 1.01 | 0.982 | 0.98 | 0.933 | 0.721 | 1.15 | 1.06 | 1.04 | 1.1 | 0.791 | 0.816 | 0.874 | 0.427 | 0.162 | 0.956 | 0.954 | 0.955 | 1.05 |
| NCI-H2228 | 1.13 | 1.27 | 1.5 | 0.13 | 0.131 | 0.744 | 0.87 | 0.702 | 0.898 | 0.587 | 0.222 | 0.532 | 0.169 | 0.187 | 1.14 | 1.75 | 1.52 | 1.12 |
| IA-LM | 0.99 | 1.26 | 0.797 | 1.01 | 0.777 | 0.865 | 0.983 | 0.967 | 0.58 | 0.443 | 0.475 | 0.359 | 0.409 | 0.264 | 1.02 | 0.771 | 0.664 | 0.876 |
| NCI-H650 | 0.877 | 1.04 | 1.02 | 0.243 | 0.52 | 1.08 | 1.24 | 1.32 | 1.38 | 0.89 | 1.04 | 0.993 | 0.613 | 0.604 | 0.889 | 1.25 | 1.19 | 1.31 |
